These results are taken from patent publication US20170368089A1, “COMPOSITION FOR PREVENTING OR TREATING COLITIS” (UNIVERSITY-INDUSTRY COOPERATION GROUP OF KYUNG HEE …, priority 2012, published 2017).

Test [1] deals with TNF-alpha. As to the kind of experiment: TNF-alpha expression in colon tissue (ELISA), TNBS colitis, second experiment. It is filed as in vivo, ICR male mice. The conditions noted are these: Table 9, extract-based samples, TNBS-treated mice, 10 mg/kg orally, 3 days. The protocol: (§1) Among the experimental groups, one group was set as a normal group, and for the experimental animals in other groups, colitis was induced with 2,4,6-trinitrobenzenesulfonic acid (TNBS). In detail, after lightly anesthetizing the experimental animals with ether, 0.1 ml of the solution prepared by mixing […] of 2,4,6-Trinitrobenzene sulfonic acid (NBS) solution with 50% ethanol was injected into the colon through the anus using a syringe having 1 ml volume and oval point, respectively; and then, the syringe was vertically picked up, and then, maintained for 30 seconds to induce the inflammation. Meanwhile, 0.1 ml of normal saline solution was orally administered to the normal group. Since then, from the next day, the sample dissolved in normal saline solution was orally administered in the volume that was decided in advance one time a day for 3 days. […]
(§2) 250 μl of RIPA butter including protease inhibitor cocktail was added to 100 mg of the colon tissue of experimental animal, and then, the colon tissue was homogenized. […] While the supernatant was stored at −80° C., the expression amounts of IL-1 beta, IL-6, and TNF-alpha were measured using a 96-well ELISA plate kits (Pierce Biotechology, Inc., Rockford, Ill., USA).
Background: ELISA stands for enzyme-linked immunosorbent assay.

Test [2] concerns IL-6. As to the kind of experiment: IL-6 expression in colon tissue (ELISA), TNBS acute colitis, third experiment. The test is classed as in vivo, male mice (C57BL/6). The following applies: Table 12; TNBS-treated mice, 10 mg/kg orally, 3 days. The protocol: (§3) Meanwhile, 0.1 ml of normal saline solution was orally administered to the normal group. Since then, from the next day, the sample dissolved in normal saline solution was orally administered in the volume that was decided in advance one time a day for 3 days. At the next day after completing the sample administration, the experimental animals were suffocated to death with carbon dioxide, and the colon from appendix to the region just before the anus was removed from the colon region. At this time, as a medicine sample, the experiments using the butanol-soluble fraction of the Anemarrhena asphodeloides Bunge extract, Mangiferin, and a combined extract were separately performed at a distance of time, respectively, and the effects of the medicine samples on preventing or treating colitis were reasonably analyzed based on the group supplied with normal saline solution instead of a specific medicine in the model animals with acute colitis induced by TNBS for each of the experiments. […] While the supernatant was stored at −80° C., the expression amounts of IL-1 beta, IL-6, and TNF-alpha, which were proinflammatory cytokines, and the expression amount of IL-10, which was anti-inflammatory cytokine, were measured using a 96-well ELISA plate kits (Pierce Biotechology, Inc., Rockford, Ill., USA).

For test [3], the system named is Myeloperoxidase (MPO). As to the kind of experiment: MPO activity of colon tissue (mouse MPO ELISA kit), TNBS colitis, first experiment. The conditions noted are these: TNBS-treated mice, 10 mg/kg orally, 3 days. It is filed as in vivo, ICR male mice. The protocol:
Among the experimental groups, one group was set as a normal group, and for the experimental animals in other groups, colitis was induced with 2,4,6-trinitrobenzenesulfonic acid (TNBS). In detail, after lightly anesthetizing the experimental animals with ether, 0.1 ml of the solution prepared by mixing […] of 2,4,6-Trinitrobenzene sulfonic acid (NBS) solution with 50% ethanol was injected into the colon through the anus using a syringe having 1 ml volume and oval point, respectively; and then, the syringe was vertically picked up, and then, maintained for 30 seconds to induce the inflammation. Meanwhile, 0.1 ml of normal saline solution was orally administered to the normal group. Since then, from the next day, the sample dissolved in normal saline solution was orally administered in the volume that was decided in advance one time a day for 3 days. At the next day after completing the sample administration, the experimental animals were suffocated to death with carbon dioxide, the colon from appendix to the region just before the anus was removed from the colon region.
200 μl of lysis buffer was added to 100 mg of colon tissue, and then, the colon tissue was homogenized. Since then, the homogenized colon tissue was centrifuged under the conditions of 4° C. and 13000 rpm for 15 minutes, and then, the supernatant thereof was obtained. In the supernatant, the MPO activity was measured using a mouse MPO assay ELISA kit (Hbt HK210, USA). 100 μl of the supernatant was added in a 96 well plate, and then, reacted at room temperature for 1 hour. After completing the reaction, the plate was overturned and emptied; was repeatedly washed three times with 200 μl of washing buffer solution; 100 μl of diluted tracer was added thereto; and then the reaction was performed at room temperature for 1 hour. After completing the reaction, the plate was overturned and emptied; and then each well in the plate was washed using 200 μl of washing buffer solution. After repeatedly performing the washing processes three times using 200 μl of washing buffer solution, 100 μl of diluted streptavidin-peroxidase conjugate was added thereto, and then, the reaction was performed at room temperature for 1 hour. After completing the reaction, the plate was overturned and emptied, and then, each well in the plate was washed with 200 μl of washing buffer solution. After the washing processes were repeatedly performed three times using 200 μl of washing buffer solution, 100 μl of TMB substrate solution was added thereto; the plate was wrapped in an aluminum foil to block out the light; and then, the reaction was performed at room temperature for 30 minutes. Since then, 100 μl of a stop solution was added to stop the reaction, and then, the absorbance was measured at 450 nm using an ELISA reader.

For test [4], the system named is IL-1 beta. As to the kind of experiment: IL-1 beta expression in colon tissue (ELISA), TNBS acute colitis, third experiment. It is filed as in vivo, male mice (C57BL/6). The conditions noted are these: Table 12; TNBS-treated mice, 10 mg/kg orally, 3 days. The protocol: as §3
Test [5] relates to IL-6. As to the kind of experiment: IL-6 expression in colon tissue (ELISA), TNBS colitis, second experiment. The test is classed as in vivo, ICR male mice. The following applies: Table 9, extract-based samples, TNBS-treated mice, 10 mg/kg orally, 3 days. The protocol: as §1, §2
Test [6] has as its system TNF-alpha. As to the kind of experiment: TNF-alpha expression in colon tissue (ELISA), TNBS acute colitis, third experiment. It is filed as in vivo, male mice (C57BL/6). The conditions noted are these: Table 12; TNBS-treated mice, 10 mg/kg orally, 3 days. Here is the method:
as §3

In turn, `Nc1ccc(O)c(C(=O)O)c1` [mesalazine, Mesalazine] gave a TNF-alpha conc. in test [1] of 23.79 ± 2.82 pg/mg. The “IL-6 (Percentage to group supplied with normal saline solution after treating TNBS)” value in test [2] turned out to be 26.6%. In addition, the MPO activity in test [3] (Table 2 (group 1)) was 1.8 ± 0.2 μUnit/mg; in test [3] (Table 3 (group 2)), 0.2 ± 0.1 μUnit/mg. Moreover, in test [4], the “IL-1β (Percentage to group supplied with normal saline solution after treating TNBS)” value was found to be 30.3%. Further, in test [5], the IL-6 conc. came out at 1.32 ± 0.11 pg/mg. Moreover, the “TNF-α (Percentage to group supplied with normal saline solution after treating TNBS)” value in test [6] was determined as 36.8%.
